From US20250152593A1, “p38 MAPK INHIBITORS AND USES THEREOF” (CITY OF HOPE, priority 2023, published 2025)
Blank lines part the entries; values can stand above or below the compound they belong to.

Legend:
[1] = system: RPMI8226 multiple myeloma cells; experiment: combination of SAHA and CEM451 with RPMI8226 multiple myeloma cells; assay type: cell-based; conditions: for Effect of CEM451 / Effect of SAHA: RPMI8226
Hut78 cells = experiment: combination study of HDAC inhibitors and CEM451 with Hut78 cells; assay type: cell-based; conditions: for Effect of CEM451 / Effect of Romidepsin / Effect of SAHA: Hut78
p38 MAPK beta = p38 MAPK beta (Homo sapiens, UniProt Q15759); experiment: in vitro kinase assay, p38 MAPK beta catalytic activity; assay type: biochemical
Protocol: (§1) FIGS. 6A-6C. In vitro kinase assays for p38a (FIG. 6A), p38β(FIG. 6B), and […] (FIG. 6C) at 100 nM.
(§2) Quinazoline derivatives were initially tested with various cancer types of cell lines using a cell-based assay.

hematopoietic cell lines = experiment: antitumor activity against hematopoietic cell lines; assay type: cell-based
Excerpt: as §2

K562 CML cells = experiment: cell-based assay, K562 CML cells; conditions: Homo sapiens, read-out: IC50 against K562 CML cells
Excerpt: as §2

p38 MAPK alpha = p38 MAPK alpha (Homo sapiens, UniProt Q16539); experiment: in vitro kinase assay, p38 MAPK alpha catalytic activity; assay type: biochemical
Protocol: as §1, §2

Chain of p38 MAPK beta (Q15759 whole entry): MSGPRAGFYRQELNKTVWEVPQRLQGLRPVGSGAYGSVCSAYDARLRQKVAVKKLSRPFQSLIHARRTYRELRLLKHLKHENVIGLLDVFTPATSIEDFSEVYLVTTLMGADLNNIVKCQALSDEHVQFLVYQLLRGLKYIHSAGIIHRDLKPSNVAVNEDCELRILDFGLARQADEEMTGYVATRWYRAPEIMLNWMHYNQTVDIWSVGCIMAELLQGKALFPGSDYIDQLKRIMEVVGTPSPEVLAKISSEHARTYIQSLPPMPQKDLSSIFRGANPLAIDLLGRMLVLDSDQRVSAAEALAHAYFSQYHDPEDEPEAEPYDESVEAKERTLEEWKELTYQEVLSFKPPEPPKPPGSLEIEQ
Chain of p38 MAPK alpha (Q16539 whole entry): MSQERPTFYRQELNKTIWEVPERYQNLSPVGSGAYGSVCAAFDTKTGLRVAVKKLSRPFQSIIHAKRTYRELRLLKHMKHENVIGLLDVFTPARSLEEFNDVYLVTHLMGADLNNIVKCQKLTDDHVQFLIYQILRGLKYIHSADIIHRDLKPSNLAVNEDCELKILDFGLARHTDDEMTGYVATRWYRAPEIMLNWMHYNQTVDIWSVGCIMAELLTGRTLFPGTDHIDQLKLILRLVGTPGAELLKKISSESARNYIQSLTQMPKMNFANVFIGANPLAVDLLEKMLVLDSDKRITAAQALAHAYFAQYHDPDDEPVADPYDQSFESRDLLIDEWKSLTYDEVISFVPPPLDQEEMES

- IC50 (p38 MAPK beta): 13 nM
- IC50 (K562 CML cells): 540 nM
- IC50 (p38 MAPK alpha): 6.2 nM
SMILES: Cc1ccc(NC(=O)c2cccc(C(F)(F)F)c2)cc1Nc1ncnc2nc(NC3CC3)ncc12 [CEM451, N-(3-((7-(cyclopropylamino)pyrimido[4,5-d]pyrimidin-4-yl)amino)-4-methylphenyl)-3-(trifluoromethyl)benzamide]
- Effect of CEM451 ([1]; CEM451 5 μM): 0.47
- Effect of CEM451 ([1]; CEM451 10 μM): 0.71
- Effect of CEM451 ([1]; CEM451 15 μM): 0.81
- effect in combination with SAHA ([1]; RPMI8226 MM cells): synergistic effects
- Effect of CEM451 (Hut78 cells; Romidepsin combination study, CEM451 5 μM): 0.57
- Effect of CEM451 (Hut78 cells; Romidepsin combination study, CEM451 10 μM): 0.72
- Effect of CEM451 (Hut78 cells; Romidepsin combination study, CEM451 15 μM): 0.83
- Effect of CEM451 (Hut78 cells; high doses study with SAHA, CEM451 5 μM): 0.48
- Effect of CEM451 (Hut78 cells; high doses study with SAHA, CEM451 10 μM): 0.65
- Effect of CEM451 (Hut78 cells; high doses study with SAHA, CEM451 15 μM): 0.81
- Effect of CEM451 (Hut78 cells; low doses study, CEM451 0.5 μM): 0.24
- Effect of CEM451 (Hut78 cells; low doses study, CEM451 1 μM): 0.26
- Effect of CEM451 (Hut78 cells; low doses study, CEM451 3 μM): 0.45
- effect in combination with SAHA (Hut78 cells; Hut78 CTCL cells): synergistic effects
- antitumor activities against hematopoietic cell lines (hematopoietic cell lines): broadly showed antitumor activities

SMILES: C/C=C1\NC(=O)[C@H]2CSSCC/C=C/[C@H](CC(=O)N[C@H](C(C)C)C(=O)N2)OC(=O)[C@H](C(C)C)NC1=O [Romidepsin, reference compound]
- Effect of Romidepsin (Hut78 cells; Romidepsin 0.001 μM): 0.1
- Effect of Romidepsin (Hut78 cells; Romidepsin 0.0015 μM): 0.58
- Effect of Romidepsin (Hut78 cells; Romidepsin 0.002 μM): 0.92

SMILES: O=C(CCCCCCC(=O)Nc1ccccc1)NO [SAHA, reference compound]
- Effect of SAHA ([1]; SAHA 0.6 μM): 0.63
- Effect of SAHA ([1]; SAHA 0.9 μM): 0.8
- Effect of SAHA ([1]; SAHA 1.2 μM): 0.91
- Effect of SAHA (Hut78 cells; high doses study, SAHA 0.6 μM): 0.16
- Effect of SAHA (Hut78 cells; high doses study, SAHA 0.9 μM): 0.27
- Effect of SAHA (Hut78 cells; high doses study, SAHA 1.2 μM): 0.74
- Effect of SAHA (Hut78 cells; low doses study, SAHA 0.6 μM): 0.3
- Effect of SAHA (Hut78 cells; low doses study, SAHA 0.9 μM): 0.59
- Effect of SAHA (Hut78 cells; low doses study, SAHA 1.2 μM): 0.84
